Experimental data from ChEMBL document CHEMBL1201862, “PubChem BioAssay data set” (2004).
Values joined by “and” are separate entries in the source; they are usually repeats but may differ in a detail not shown here. Identical values can stand only once.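 Dose response: 5 concentrations. Exposure: 48 h. Format: 96-well plates. Endpoint: linear interpolation; highest concentration if not reached. GI50: concentration for 50% inhibition of growth.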 Active and inactive are the calls of the source. Cut-off read from the data, not from the text of the source: active = GI50 up to about 1.1 µM and inactive = higher.

Columns and labels:
Test in all cases: inhibition of tumour cell growth, NCI panel, 48 h
[1] = system: HOP-62
[2] = system: KM12
[3] = system: MOLT-4
[4] = system: NCI-H23
[5] = system: BT-549
[6] = system: RXF 393
[7] = system: COLO 205
[8] = system: HT-29
[9] = system: CCRF-CEM
[10] = system: MDA-MB-435
[11] = system: T47D
[12] = system: NCI/ADR-RES
[13] = system: OVCAR-3
[14] = system: UACC-62
[15] = system: LOX IMVI
[16] = system: 786-0
[17] = system: OVCAR-5
[18] = system: EKVX
[19] = system: OVCAR-8
[20] = system: SR

Row | Structure (SMILES) | GI50 [1] | GI50 [2] | GI50 [3] | GI50 [4] | GI50 [5] | GI50 [6] | GI50 [7] | GI50 [8] | GI50 [9] | GI50 [10] | GI50 [11] | GI50 [12] | GI50 [13] | GI50 [14] | GI50 [15] | GI50 [16] | GI50 [17] | GI50 [18] | GI50 [19] | GI50 [20]
1 | Cc1nn(C(=O)c2ccc(Cl)cc2)c2c1C(c1ccc(Cl)cc1)SC(=N)N2 (configuration not stated) | > 10 µM (inactive) | > 10 µM (inactive) | > 10 µM (inactive) | > 10 µM (inactive) | > 10 µM (inactive) | > 10 µM (inactive) | > 10 µM (inactive) | > 10 µM (inactive) | > 10 µM (inactive) | > 10 µM (inactive) | > 10 µM (inactive) | > 10 µM (inactive) | > 10 µM (inactive) | > 10 µM (inactive) | > 10 µM (inactive) | > 10 µM (inactive) | > 10 µM (inactive) | > 10 µM (inactive) | > 10 µM (inactive) | > 10 µM (inactive)
2 | Cc1nc(C)c(N2CCNCC2)c(O)n1 | > 100 µM (inactive) | > 100 µM (inactive) | > 100 µM (inactive) | > 100 µM (inactive) | > 100 µM (inactive) | > 100 µM (inactive) | > 100 µM (inactive) | > 100 µM (inactive) | > 100 µM (inactive) | > 100 µM (inactive) | > 100 µM (inactive) | > 100 µM (inactive) | > 100 µM (inactive) | > 100 µM (inactive) | > 100 µM (inactive) | > 100 µM (inactive) |  | > 100 µM (inactive) | > 100 µM (inactive) | > 100 µM (inactive)
3 | O=C1N2CCc3c([nH]c4ccccc34)C23CC2CCCC12S3 (configuration not stated) | > 50 µM (inactive) | 25.4 µM (inactive) | 25.8 µM (inactive) | 20.1 µM (inactive) | 21.7 µM (inactive) | > 50 µM (inactive) | 26.7 µM (inactive) | 18.4 µM (inactive) |  | 33.7 µM (inactive) | 20.5 µM (inactive) | 10.7 µM (inactive) | 39.4 µM (inactive) | 36.7 µM (inactive) | 34.2 µM (inactive) | 33.7 µM (inactive) | > 50 µM (inactive) | 47.2 µM (inactive) | 28.8 µM (inactive) | 28.9 µM (inactive)
4 | COc1cccc2c1C1(O)C2CCCCCCCCCC12OCCCO2 (configuration not stated) | > 38.3 µM (inactive) | > 38 µM (inactive) | 6.3 µM (inactive) | > 58.6 µM (inactive) | 92 µM (inactive) | > 100 µM (inactive) | > 33.8 µM (inactive) | 10.8 µM (inactive) | 8.32 µM (inactive) | 24.6 µM (inactive) | 23.4 µM (inactive) | > 100 µM (inactive) | > 40.2 µM (inactive) | > 100 µM (inactive) | 10.5 µM (inactive) | 32.7 µM (inactive) | > 40.7 µM (inactive) |  | > 41.8 µM (inactive) | 3 µM (inactive)
5 | COC(=O)[C@]12CSC[C@H]1C[C@H](c1ccccc1OC)N2 | > 100 µM (inactive) | > 100 µM (inactive) | > 100 µM (inactive) | > 100 µM (inactive) | > 100 µM (inactive) | > 100 µM (inactive) | > 100 µM (inactive) |  | > 100 µM (inactive) | > 100 µM (inactive) | > 100 µM (inactive) | > 100 µM (inactive) | > 100 µM (inactive) | > 100 µM (inactive) | > 100 µM (inactive) | > 100 µM (inactive) | > 100 µM (inactive) | > 100 µM (inactive) | > 100 µM (inactive) | > 100 µM (inactive)
6 | Cc1cc(C)nc(NS(=O)(=O)c2ccc(NC(=O)c3cccc4c(NNc5ccc(S(=O)(=O)N=C(N)N)cc5)c5ccccc5nc34)cc2)n1 | > 50 µM (inactive) | > 50 µM (inactive) | > 50 µM (inactive) | > 50 µM (inactive) | > 50 µM (inactive) | > 50 µM (inactive) | > 50 µM (inactive) | > 50 µM (inactive) | > 50 µM (inactive) | > 50 µM (inactive) | > 50 µM (inactive) | > 50 µM (inactive) | > 50 µM (inactive) | > 50 µM (inactive) | > 50 µM (inactive) | > 50 µM (inactive) |  | > 50 µM (inactive) | > 50 µM (inactive) | > 50 µM (inactive)
7 | Clc1ccc(-c2cc(-c3nc4ccccc4[nH]3)no2)cc1 | 19.5 µM (inactive) | 20.8 µM (inactive) | 16.1 µM (inactive) | 18.9 µM (inactive) | 21.6 µM (inactive) |  | 20 µM (inactive) | 18.2 µM (inactive) | 18.7 µM (inactive) | 17 µM (inactive) | 11.7 µM (inactive) | 23.6 µM (inactive) | 18.5 µM (inactive) | 14.6 µM (inactive) | 19.5 µM (inactive) | 24.3 µM (inactive) | 18.7 µM (inactive) | 16.9 µM (inactive) | 33.8 µM (inactive) | 21.4 µM (inactive)
8 | O=C(O)/C=C/c1ccc(OS(=O)(=O)O)cc1 | > 100 µM (inactive) | > 100 µM (inactive) | > 100 µM (inactive) | > 100 µM (inactive) | > 100 µM (inactive) | 1.49 µM (inactive) | > 100 µM (inactive) | > 100 µM (inactive) |  | > 100 µM (inactive) | > 100 µM (inactive) | > 100 µM (inactive) | > 100 µM (inactive) | > 100 µM (inactive) | > 100 µM (inactive) | > 100 µM (inactive) | > 100 µM (inactive) | > 100 µM (inactive) | > 100 µM (inactive) | > 100 µM (inactive)
9 | C1=N\c2ccc(cc2)-c2ccc(cc2)/N=C\c2ccc(cc2)OCc2cccc(n2)COc2ccc/1cc2 | 27.3 µM (inactive) | > 100 µM (inactive) | 85.3 µM (inactive) | > 100 µM (inactive) | > 100 µM (inactive) | 42.2 µM (inactive) | > 100 µM (inactive) | > 100 µM (inactive) | 97.7 µM (inactive) | > 100 µM (inactive) | > 100 µM (inactive) | 99.3 µM (inactive) | > 100 µM (inactive) | > 100 µM (inactive) |  | > 100 µM (inactive) | > 100 µM (inactive) | 45.8 µM (inactive) | 25.1 µM (inactive) | > 100 µM (inactive)
10 | CN(c1ccccc1)S(=O)(=O)c1ccc([N+](=O)[O-])cc1 | > 100 µM (inactive) | 46.5 µM (inactive) |  | 83.4 µM (inactive) | > 100 µM (inactive) | > 100 µM (inactive) | > 100 µM (inactive) | 69.5 µM (inactive) |  | > 100 µM (inactive) | > 100 µM (inactive) | 95.1 µM (inactive) | > 100 µM (inactive) |  | > 100 µM (inactive) | > 100 µM (inactive) | > 100 µM (inactive) | > 100 µM (inactive) | > 100 µM (inactive) | > 100 µM (inactive)
11 | CC(=O)OC1OC(C2c3cccc(O)c3C(=O)c3c(O)cc(CO)cc32)C(O)C(O)C1O (configuration not stated) |  |  | 4.13 µM (inactive) and 4.58 µM (inactive) | 3.08 µM (inactive) and 3.33 µM (inactive) | 4.66 µM (inactive) and 5.7 µM (inactive) | 9.4 µM (inactive) and 6.84 µM (inactive) |  | 3.74 µM (inactive) and 3.92 µM (inactive) | 3.04 µM (inactive) and 3.18 µM (inactive) | 3.72 µM (inactive) and 3.19 µM (inactive) | 1.41 µM (inactive) and 1.73 µM (inactive) | 3.88 µM (inactive) and 2.93 µM (inactive) |  | 4.22 µM (inactive) and 4.29 µM (inactive) | 2.87 µM (inactive) and 3.03 µM (inactive) | 4.18 µM (inactive) and 4.13 µM (inactive) | 3.94 µM (inactive) and 2.4 µM (inactive) | 3.78 µM (inactive) and 2.64 µM (inactive) | 4.31 µM (inactive) and 3.61 µM (inactive) | 2.67 µM (inactive) and 1.93 µM (inactive)
12 | CC(=O)c1cc2c(s1)C(=O)c1scc(C(C)=O)c1C2=O | 0.467 µM (active) | 1.39 µM (inactive) |  | 0.432 µM (active) | 1.12 µM (active) | 0.348 µM (active) | 1.97 µM (inactive) | 1.81 µM (inactive) | 0.235 µM (active) | 0.224 µM (active) | 0.254 µM (active) | 0.24 µM (active) | 0.0738 µM (active) | 0.26 µM (active) | 0.0711 µM (active) | 0.724 µM (active) | 1.57 µM (inactive) | 0.485 µM (active) | 0.23 µM (active) | 0.107 µM (active)
13 | COc1nc(C#CC(C)(C)C)nc(OC)n1 | 34.4 µM (inactive) | 18.2 µM (inactive) | 35.6 µM (inactive) | 19.7 µM (inactive) | 31.9 µM (inactive) | 31.9 µM (inactive) | 31.8 µM (inactive) | 40 µM (inactive) |  | 15 µM (inactive) | 55.5 µM (inactive) | 21 µM (inactive) | 28.6 µM (inactive) | 14.8 µM (inactive) | 16.6 µM (inactive) | 23.8 µM (inactive) | 21.2 µM (inactive) | 36 µM (inactive) | 17.8 µM (inactive) | 5.21 µM (inactive)
14 | Cc1cc(N(CCC#N)CCC#N)ccc1C(/N=N/c1ccc([N+](=O)[O-])cc1)=N\NC(=O)c1ccccc1 | 87.5 µM (inactive) | 40.8 µM (inactive) | 45.2 µM (inactive) | 30.7 µM (inactive) | 37.5 µM (inactive) | 52.2 µM (inactive) | 35.2 µM (inactive) | 24.5 µM (inactive) | 41.4 µM (inactive) | 7.82 µM (inactive) | 27 µM (inactive) | 51.5 µM (inactive) | 46.1 µM (inactive) | 31 µM (inactive) |  | 47.9 µM (inactive) | > 100 µM (inactive) | 63.4 µM (inactive) | 56.5 µM (inactive) | 14.2 µM (inactive)
